Reference: US20110281810A1, “Composition” (Cognis IP Management GmbH, priority 2010, published 2011)
Values after ≈ are worked out from the molar mass of the structure shown.

Key:
[1] = Solubilization of a homologous series of cinnamic acid derivatives in water by solubilizers; settings: aqueous with cosolvent or surfactant or cyclodextrin
From the text: (§1) Additionally investigated was the solubilization of a homologous series of cinnamic acid derivatives.

[2] = physchem
Experimental: The stated products and synergistic mixtures were investigated for their usefulness in pharmaceutical formulations and in particular for solubility improvement for sparingly soluble model substances.
The effect of the stated new solubilizers on the boost to solubility of these active ingredients was investigated and was compared with solubilizers already established for pharmaceutical applications. For this purpose, solution isotherms were recorded, and can be used to ascertain the extent of dissolution mediated by the various solubilizers. The optimum is a sharp increase in drug concentration through the use of small amounts of solubilizer, since increasing concentration may also be accompanied by an increase in the unwanted effects.
The solubilizers investigated were compared with solubilizers already established for pharmaceutical formulations, such as TEGO® SMO 80 V (Polysorbat 80) from Evonik, Solutol® HS 15 from BASF, Ludwigshafen, and Eumulgin® RO 35 PH and Speziol® TPGS Pharma (Tocophersolan) from Cognis, Monheim.

[3] = physchem; settings: aqueous with cosolvent or surfactant or cyclodextrin
From the text: as §1

[4] = Eumulgin ES solution in water, Solubility (MW) with Eumulgin ES, water, solubilizer Eumulgin ES
[5] = Eumulgin HPS solution in water, Solubility (MW) with Eumulgin HPS, water, solubilizer Eumulgin HPS
[6] = Eumulgin L solution in water, Solubility (MW) with Eumulgin L, water, solubilizer Eumulgin L
[7] = Eumulgin O10 solution in water, Solubility (MW) with Eumulgin O10, water, solubilizer Eumulgin O10
[8] = Eumulgin RO35 solution in water, Solubility (MW) with Eumulgin RO35, water, solubilizer Eumulgin RO35
[9] = Speziol TPGS solution in water, Solubility (MW) with Speziol TPGS, water, solubilizer Speziol TPGS
[10] = Tego SMO 80V solution in water, Solubility (MW) with Tego SMO 80V, water, solubilizer Tego SMO 80V
[11] = aqueous with cosolvent or surfactant or cyclodextrin, Solubility with Eumulgin RO35
[12] = aqueous with cosolvent or surfactant or cyclodextrin, Solubility with TEGO SMO 80V
[13] = water, Solubility, no solubilizer
[14] = Solubility (MW) with Eumulgin HPS
[15] = Solubility (MW) with Eumulgin L
[16] = Solubility (MW) with Eumulgin O10
[17] = Solubility (MW) with Eumulgin RO35
[18] = Solubility (MW) with Speziol TPGS
[19] = Solubility (MW) with Tego SMO 80V

Q: For `COC(=O)C=Cc1ccccc1` [Methyl cinnamate, methyl cinnamate], which solubility [1, 4] is on record?
A: 3000 µg/mL (≈ 18.5 mM)

Q: What about the solubility [1, 5] of the same molecule?
A: 11400 µg/mL (≈ 70.3 mM)

Q: And the solubility [1, 6]?
A: 9800 µg/mL (≈ 60.4 mM)

Q: And the solubility [1, 7]?
A: 9100 µg/mL (≈ 56.1 mM)

Q: And the solubility [1, 8]?
A: 21500 µg/mL (≈ 133 mM)

Q: What about the solubility [1, 9] of the same molecule?
A: 7900 µg/mL (≈ 48.7 mM)

Q: What about the solubility [1, 10] of the same molecule?
A: 9600 µg/mL (≈ 59.2 mM)

Q: Which solubility [1, 4] does the source give for `CC(C)OC(=O)C=Cc1ccccc1` [Isopropyl cinnamate, isopropyl cinnamate] here?
A: 3400 µg/mL (≈ 17.9 mM)

Q: What about the solubility [1, 5] of the same molecule?
A: 25700 µg/mL (≈ 135 mM)

Q: And the solubility [1, 6]?
A: 15200 µg/mL (≈ 79.9 mM)

Q: And the solubility [1, 7]?
A: 32600 µg/mL (≈ 171 mM)

Q: What about the solubility [1, 8] of the same molecule?
A: 50900 µg/mL (≈ 268 mM)

Q: What about the solubility [1, 9] of the same molecule?
A: 21000 µg/mL (≈ 110 mM)

Q: What about the solubility [1, 10] of the same molecule?
A: 52500 µg/mL (≈ 276 mM)

Q: For `CC[C@H]1OC(=O)[C@H](C)[C@@H](O[C@H]2C[C@@](C)(OC)[C@@H](O)[C@H](C)O2)[C@H](C)[C@@H](O[C@@H]2O[C@H](C)C[C@H](N(C)C)[C@H]2O)[C@](C)(O)C[C@@H](C)C(=O)[C@H](C)[C@@H](O)[C@]1(C)O` [Erythromycin], which solubility ([2]; aqueous with cosolvent or surfactant or cyclodextrin, Solubility with Eumulgin HPS) is on record?
A: 1230 µg/mL

Q: What about the solubility ([2]; aqueous with cosolvent or surfactant or cyclodextrin, Solubility with Eumulgin L) of the same molecule?
A: 1070 µg/mL

Q: And the solubility [2, 11]?
A: 1660 µg/mL

Q: What about the solubility ([2]; aqueous with cosolvent or surfactant or cyclodextrin, Solubility with Speziol TPGS) of the same molecule?
A: 1720 µg/mL

Q: And the solubility [2, 12]?
A: 1700 µg/mL

Q: What about the solubility [2, 13] of the same molecule?
A: 459 µg/mL

Q: Which results are given for `CC(C)COC(=O)C=Cc1ccccc1` [Isobutyl cinnamate, isobutyl cinnamate]?
A: solubility [1, 4]: 1200 µg/mL (≈ 5.87 mM); solubility [1, 5]: 29000 µg/mL (≈ 142 mM); solubility [1, 6]: 41000 µg/mL (≈ 201 mM); solubility [1, 7]: 65900 µg/mL (≈ 323 mM); solubility [1, 8]: 54200 µg/mL (≈ 265 mM); solubility [1, 9]: 23100 µg/mL (≈ 113 mM); solubility [1, 10]: 110000 µg/mL (≈ 539 mM)

Q: Which solubility [3, 14] does the source give for `CCOC(=O)C=Cc1ccccc1` [Ethyl cinnamate, ethyl cinnamate] here?
A: 23600 µg/mL (≈ 134 mM)

Q: What about the solubility [3, 15] of the same molecule?
A: 14700 µg/mL (≈ 83.4 mM)

Q: What about the solubility [3, 16] of the same molecule?
A: 47000 µg/mL (≈ 267 mM)

Q: And the solubility [3, 17]?
A: 68000 µg/mL (≈ 386 mM)

Q: And the solubility [3, 18]?
A: 42300 µg/mL (≈ 240 mM)

Q: And the solubility [3, 19]?
A: 96400 µg/mL (≈ 547 mM)

Q: What does the source list for `CCC(C)n1ncn(-c2ccc(N3CCN(c4ccc(OCC5COC(Cn6cncn6)(c6ccc(Cl)cc6Cl)O5)cc4)CC3)cc2)c1=O` (centres unmarked) [Itraconazole]?
A: Solubility with Eumulgin ES [2]: 9 µg/mL; Solubility with Eumulgin HPS [2]: 0.008 mg/m1; Solubility with Eumulgin L [2]: 7 µg/mL; Solubility with Speziol TPGS [2]: 8 µg/mL; solubility [2, 11]: 11 µg/mL; solubility [2, 12]: 15 µg/mL; solubility [2, 13]: 1 µg/mL

Q: Which solubility ([3]; Solubility (MW) with Eumulgin ES) does the source give for `O=C(C=Cc1ccccc1)OCCc1ccccc1` [Phenethyl cinnamate, phenethyl cinnamate] here?
A: 3200 µg/mL (≈ 12.7 mM)

Q: What about the solubility [3, 14] of the same molecule?
A: 2700 µg/mL (≈ 10.7 mM)

Q: What about the solubility [3, 15] of the same molecule?
A: 2500 µg/mL (≈ 9.91 mM)

Q: What about the solubility [3, 16] of the same molecule?
A: 3700 µg/mL (≈ 14.7 mM)

Q: And the solubility [3, 17]?
A: 4900 µg/mL (≈ 19.4 mM)

Q: What about the solubility [3, 18] of the same molecule?
A: 2600 µg/mL (≈ 10.3 mM)

Q: What about the solubility [3, 19] of the same molecule?
A: 2500 µg/mL (≈ 9.91 mM)
